Test results as given in patent publication US20240424119A1, “USE OF POLYPEPTIDE IN RESISTANCE TO ADDICTION AND RELAPSE THEREOF, AND COMPLEX AND POLYPEPTIDE” (SHENZHEN CHENYANG BIOLOGICAL TECHNOLOGY CO., LTD, priority 2021, published 2024).
No end group written: not given here.

B1: IL3 region of D2R: GST fusion protein containing the IL3 region of D2R (K211-Q373) (protein)
chain: KIYIVLRRRRKRVNTKRSSRAFRAHLRAPLKGNCTHPEDMKLCTVIMKSNGSFPVNRRRVEAARRAQELEMEMLSSTSPPERTRYSPIPPSHHQLTLPDPSHHGLHSTPDSPAKPEKNGHAKDHPKIAKIFEIQTMPNGKTRTSLKTMSRRKLSQQKEKKATQ
modifications: left off: a dimerising Fc or GST; large carriers; small tags and cut ends

How the values were obtained:
[1] = tested on: morphine-induced CPP in mice; assay: Effects of different polypeptides on morphine-induced CPP in mice; type: in vivo; settings: 3 nmol/g i.p. on Day 10, recorded on the second day after administration; TAT fusion peptides; n=12
Method: The CPP equipment used in the experiment has two equal-volume chambers (15 cm×15 cm×37 cm) with a movable door in the middle. Mice could freely shuttle between chambers during testing, or were limited to one side of the chamber during training. The interior of one chamber is black and the bottom is striped, while the other chamber is white and the bottom is latticed. All behavioral tests, including distance and time of activity, were recorded by a camera and calculated using the SMART Video Tracking System (Version 2.5; Panlab Technology for Biosearch, Spain).
On Day 1, mice were allowed to explore two chambers freely for 15 min without any treatment (before testing). On Day 2, 4, 6 and 8, control group (saline group) and model group (morphine group) received saline (10 mL/kg) and morphine (10 mg/kg), respectively. TAT group (3 nmol/g) and TAT-D2R-KT group (3 nmol/g) were injected (intraperitoneally, 10 ml/kg body weight) 1 hour before morphine injection. After injection, all mice were trained in the white chamber for 40 min. On Day 3, 5, 7 and 9, all mice were given normal saline, and then immediately placed in the black chamber for 40 min; on Day 10, after all mice explored freely for 15 min, the test ended, and the CPP scores (moving duration of mice) were shown in FIG. 6.
(§1) Then, the C-terminal of Pep1 to Pep5 was fused to the N-terminal of TAT respectively to obtain fusion peptides which could penetrate the blood-brain barrier.
Mice were given morphine (1 mg/kg) or normal saline for 8 days, and different polypeptides (3 nmol/g) of Example 9 were administered to mice via intraperitoneal injection (10 ml/kg) on Day 10; the expression of morphine-induced CPP was recorded according to the CPP experimental method in Example 5 on the second day after administration, and the results were shown in FIG. 17.

[2] = tested on: cocaine-induced behavioral sensitization in mice; assay: Effects of different polypeptides on cocaine-induced behavioral sensitization in mice; type: in vivo; settings: 3 nmol/g i.p. 1 hour before cocaine (15 mg/kg) on sixth day of pause; TAT fusion peptides; n=10
Method: as §1
In order to verify that the polypeptide of the invention is also effective against cocaine-induced addiction, the following tests were carried out:
Mice were given cocaine (15 mg/kg) or normal saline and then tested for 30 minutes, repeated for 5 days, and followed by a 5-day pause of administration. On the sixth day of the pause, 1 hour before cocaine administration, different polypeptides of Example 9 (3 nmol/g) were administered to mice via intraperitoneal injection (10 ml/kg) for drug induction, and a testing was carried out, and the results were shown in FIG. 18.

[3] = tested on: alcohol-induced behavioral sensitization in mice; assay: Effects of different polypeptides on alcohol-induced behavioral sensitization in mice; type: in vivo; settings: 3 nmol/g i.p. 1 hour before alcohol (2.2 g/kg) on third day after training; TAT fusion peptides; n=10
Method: as §1
In order to verify that the polypeptide of the invention is also effective against alcohol-induced addiction, the following tests were carried out:
The training period lasted for 10 days, during which mice were administered alcohol (2.2 g/kg) or normal saline every other day and then immediately tested for 15 minutes. On the third day after training, 1 hour before alcohol administration, different polypeptides of Example 9 (3 nmol/g) were administered to mice via intraperitoneal injection (10 ml/kg) for drug induction, and a testing was carried out, and the results were shown in FIG. 19.

D2R/NR2B complex = target: T1, D2R/NR2B complex (Mus musculus, UniProt Q01097); assay: Co-immunoprecipitation of hippocampus tissue from polypeptide-treated CPP mice and BS mice; type: in vivo
T1 construct: Co-immunoprecipitation was performed using a protein sample (100-500 μg protein) from hippocampus tissue; from tissue; host or cells: hippocampus tissue of CPP and BS mice treated in vivo
Method: Co-immunoprecipitation was performed using a protein sample (100-500 μg protein) from hippocampus tissue. NR2B and D1R or D2R were precipitated using an anti-NR2B and D2R, D2R or NR2B and 25 μl protein A/G+agarose bead slurry (SantaCruz Biotechnology, sc-2001), respectively.
The protein was then isolated on 8% SDS-PAGE gel and detected with a mouse antibody against NR2B and D2R. HRP-coupled secondary antibody and enhanced chemiluminescence method were used to detect the protein. Density analysis of bands was performed using image laboratory software.
In order to verify the effect of KT polypeptide of D2R on the D2R/NR2B complex in vivo, the C terminal of the region (K211-T225) was fused to the N terminal of transduction domain of HIV-1-type Tat protein (as set forth in SEQ ID NO: 6, hereinafter referred to as TAT) to obtain a fusion protein which can permeate blood-brain barrier, named TAT-D2R-KT.
CPP mice and BS mice were treated with TAT-D2R-KT respectively, and mice treated with TAT only were used as control (all treated by single intraperitoneal administration, 10 ml/kg body weight, medicament concentration 3 nmol/g). After 1 hour of treatment, analysis was performed according to the co-immunoprecipitation method in Example 1, and the results were shown in FIG. 4.

NR2B = target: T2, NR2B (Mus musculus, UniProt Q01097); assay: GST-pulldown of NR2B from hippocampus extract by GST fusion proteins of D2R regions; type: binding; settings: 500 μg hippocampus extract, overnight, 4° C.
T2 construct: from tissue; host or cells: hippocampus extract
Method: In order to search for the physical interaction site between D2R and NR2B, cDNA fragments of the CT region of D2R (T428-C443) and the third intracellular loop (IL3) region of D2R (K211-Q373) were first obtained via the D2R full-length cDNA clone (Genbank Accession No.: M29066.1). These fragments were subcloned to the BamH1/EcoR1 or BamH1/Xho1 site of a pGEX-4T-3 plasmid (YouBio, Item No: VT1255). Initiation methionine residue and termination codon were added as appropriate. All constructs were resequenced to confirm that splice fusion was achieved appropriately. The GST fusion protein containing the IL3 region of D2R (GST-D2R-IL3) and the GST fusion protein containing the CT region of D2R (GST-D2R-CT) were obtained by using E.coli BL21 viable cells (AlpalifeBio, Item No: KTSM104L) for expression and purifying them from bacterial lysate, wherein the specific positions of the coding sequences of IL3 region and CT region on D2R were shown in FIG. 2.
500 μg of dissolved hippocampus extract was diluted with 1×PBS/0.1% Triton X-100 and incubated overnight with 20 μl protein GST resin (TransGen Biotech, Item No: N21220, Beijing, China) saturated with GST protein only or with the prepared 15 µg GST fusion protein at 4° C. Beads were washed 1-8 times with 1×PBS/0.1% Triton X-100. Binding proteins were eluted with 2×loading buffer, separated by SDS-PAGE, and subjected to Western blot with respective antibodies thereof, and the results were shown in A of FIG. 3.
Next, in order to further explore the interaction sequence/site between D2R and NR2B, the IL3 region was divided into KVC (K211-V270) region of D2R, ES (E271-S321) region of D2R and PQ (P322-Q373) region of D2R.
According to the method in the present Example, a pulldown analysis was performed using a GST fusion protein containing the KVC region of D2R (GST-D2R-KVC), a GST fusion protein containing the ES region of D2R (GST-D2R-ES), and a GST fusion protein containing the PQ region of D2R (GST-D2R-PQ), and the results of Western blot were shown in B of FIG. 3.
Further, the KVC region was divided into KT (K211-T225) region of D2R, KL (K226-L240) region of D2R, KV (K241-V255) region of D2R, and IV (1256-V270) region of D2R.
According to the method in the present Example, a pulldown analysis was performed using a GST fusion protein containing the KT region of D2R (GST-D2R-KT), the GST fusion protein containing the KL region of D2R (GST-D2R-KL), a GST fusion protein containing the KV region of D2R (GST-D2R-KV), and a GST fusion protein containing the IV region of D2R (GST-D2R-IV), and the results of Western blot were shown in C of FIG. 3.

binding of D2R to NR2B = binding of D2R to NR2B (Homo sapiens, UniProt Q13224); settings: Liu et al., Neuron 52, 897-909, FIGS. 3M and 3N; cited from earlier work
Chain of binding of D2R to NR2B (Q13224 27-1484): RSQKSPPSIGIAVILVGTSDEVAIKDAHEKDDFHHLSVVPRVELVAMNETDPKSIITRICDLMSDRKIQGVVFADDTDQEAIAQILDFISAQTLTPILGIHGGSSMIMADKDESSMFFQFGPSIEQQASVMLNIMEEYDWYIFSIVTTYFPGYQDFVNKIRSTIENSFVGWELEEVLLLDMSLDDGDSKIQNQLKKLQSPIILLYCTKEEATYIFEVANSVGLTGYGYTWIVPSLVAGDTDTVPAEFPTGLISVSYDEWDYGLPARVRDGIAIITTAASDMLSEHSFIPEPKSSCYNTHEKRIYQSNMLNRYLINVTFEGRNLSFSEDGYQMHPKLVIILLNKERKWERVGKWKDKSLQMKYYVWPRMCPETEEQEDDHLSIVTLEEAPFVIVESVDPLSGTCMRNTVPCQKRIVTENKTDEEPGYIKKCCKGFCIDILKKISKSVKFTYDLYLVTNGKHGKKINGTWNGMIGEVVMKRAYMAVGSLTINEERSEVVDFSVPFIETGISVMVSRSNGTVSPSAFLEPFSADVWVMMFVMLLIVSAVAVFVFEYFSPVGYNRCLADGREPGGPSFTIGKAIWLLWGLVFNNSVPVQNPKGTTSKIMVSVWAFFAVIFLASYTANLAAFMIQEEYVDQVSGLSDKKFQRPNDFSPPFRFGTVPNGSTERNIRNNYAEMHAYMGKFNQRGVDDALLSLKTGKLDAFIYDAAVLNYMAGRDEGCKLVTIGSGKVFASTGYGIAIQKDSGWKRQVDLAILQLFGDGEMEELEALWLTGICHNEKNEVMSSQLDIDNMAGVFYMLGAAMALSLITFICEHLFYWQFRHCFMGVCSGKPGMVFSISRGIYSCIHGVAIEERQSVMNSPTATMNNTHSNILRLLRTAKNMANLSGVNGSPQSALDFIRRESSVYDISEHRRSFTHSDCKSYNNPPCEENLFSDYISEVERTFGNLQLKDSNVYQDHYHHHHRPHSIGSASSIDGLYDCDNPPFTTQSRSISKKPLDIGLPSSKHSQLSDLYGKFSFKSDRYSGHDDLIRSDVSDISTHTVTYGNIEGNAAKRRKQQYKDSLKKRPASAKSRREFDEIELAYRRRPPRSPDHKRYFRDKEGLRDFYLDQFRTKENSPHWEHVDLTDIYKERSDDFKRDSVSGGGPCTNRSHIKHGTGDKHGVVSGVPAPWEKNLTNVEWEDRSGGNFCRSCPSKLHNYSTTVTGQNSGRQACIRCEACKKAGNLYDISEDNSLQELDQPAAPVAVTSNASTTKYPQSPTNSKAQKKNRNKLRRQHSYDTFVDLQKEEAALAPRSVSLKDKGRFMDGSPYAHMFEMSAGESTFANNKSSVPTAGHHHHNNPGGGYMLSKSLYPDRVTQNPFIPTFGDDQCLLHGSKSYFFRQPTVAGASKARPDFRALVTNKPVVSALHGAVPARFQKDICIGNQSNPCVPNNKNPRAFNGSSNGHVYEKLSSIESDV

T2 sequence (Q01097 27-1482, other chains not shown): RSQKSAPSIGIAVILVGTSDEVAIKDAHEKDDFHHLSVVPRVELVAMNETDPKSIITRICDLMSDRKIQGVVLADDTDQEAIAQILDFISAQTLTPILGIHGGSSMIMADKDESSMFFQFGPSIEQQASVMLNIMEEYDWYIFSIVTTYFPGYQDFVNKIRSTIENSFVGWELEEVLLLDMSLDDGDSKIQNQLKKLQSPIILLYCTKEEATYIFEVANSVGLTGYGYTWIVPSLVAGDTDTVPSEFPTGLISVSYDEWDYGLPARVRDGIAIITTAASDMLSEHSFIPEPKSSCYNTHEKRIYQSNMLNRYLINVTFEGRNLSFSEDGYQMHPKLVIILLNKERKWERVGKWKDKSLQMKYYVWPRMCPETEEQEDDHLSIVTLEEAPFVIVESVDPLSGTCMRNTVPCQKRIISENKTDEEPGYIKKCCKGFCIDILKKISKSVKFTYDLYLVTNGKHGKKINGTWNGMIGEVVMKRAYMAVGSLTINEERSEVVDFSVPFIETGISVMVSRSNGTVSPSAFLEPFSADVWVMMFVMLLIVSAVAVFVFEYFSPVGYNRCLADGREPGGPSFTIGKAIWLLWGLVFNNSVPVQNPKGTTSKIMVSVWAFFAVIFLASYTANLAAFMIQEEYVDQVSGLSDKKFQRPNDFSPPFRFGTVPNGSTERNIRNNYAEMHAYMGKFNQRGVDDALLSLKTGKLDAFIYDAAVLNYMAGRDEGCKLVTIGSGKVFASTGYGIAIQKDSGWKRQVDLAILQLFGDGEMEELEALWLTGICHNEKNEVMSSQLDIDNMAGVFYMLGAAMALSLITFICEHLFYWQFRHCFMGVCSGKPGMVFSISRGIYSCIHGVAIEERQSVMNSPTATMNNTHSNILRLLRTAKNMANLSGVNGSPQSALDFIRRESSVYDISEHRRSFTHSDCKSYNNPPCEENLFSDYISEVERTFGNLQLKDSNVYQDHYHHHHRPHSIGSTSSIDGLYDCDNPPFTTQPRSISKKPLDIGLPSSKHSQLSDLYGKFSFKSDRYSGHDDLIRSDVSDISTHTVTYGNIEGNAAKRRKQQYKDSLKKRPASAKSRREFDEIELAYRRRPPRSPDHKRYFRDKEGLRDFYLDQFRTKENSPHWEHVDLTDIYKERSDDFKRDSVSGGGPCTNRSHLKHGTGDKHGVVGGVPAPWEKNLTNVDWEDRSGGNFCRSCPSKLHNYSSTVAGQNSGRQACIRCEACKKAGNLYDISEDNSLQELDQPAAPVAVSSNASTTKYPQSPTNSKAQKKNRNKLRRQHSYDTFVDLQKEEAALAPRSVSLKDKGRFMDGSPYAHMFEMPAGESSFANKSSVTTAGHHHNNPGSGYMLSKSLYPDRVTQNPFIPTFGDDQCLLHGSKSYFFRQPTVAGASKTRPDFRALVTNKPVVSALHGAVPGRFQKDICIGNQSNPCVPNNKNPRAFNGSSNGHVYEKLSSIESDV
T1 sequence (Q01097 27-1482, other chains not shown): as above

Molecule	activity distance of morphine-CPP mice [1]	expression of sensitization behavior (cocaine-induced) [2]	expression of sensitization behavior (alcohol-induced) [3]	precipitation of NR2B by GST fusion protein (pulldown, Western blot) (NR2B)	other results
KIYIVLGGGRKRVNT [Pep4, variant with the mid-segment RRR mutated to GGG; tested fused to TAT]	failed to significantly reduce the activity distance	failed to inhibit the expression of sensitization behavior	failed to inhibit the expression of sensitization behavior		
KIYIVLRRRGGGVNT [Pep5, variant with the mid-segment RKR mutated to GGG; tested fused to TAT]	failed to significantly reduce the activity distance	failed to inhibit the expression of sensitization behavior	failed to inhibit the expression of sensitization behavior		
KIYIVLRRRRKRV [Pep3, variant of KT polypeptide, C-terminal truncated; tested fused to TAT]	significantly reduced the activity distance	significantly inhibited the expression of sensitization behavior	significantly inhibited the expression of sensitization behavior		
KIYIVLRRRRKRVNT [Pep1, KT polypeptide, K211-T225 of the IL3 region of D2R; tested in vivo fused to TAT]	significantly reduced the activity distance	significantly inhibited the expression of sensitization behavior	significantly inhibited the expression of sensitization behavior		D2R/NR2B interaction in hippocampus tissue (co-immunoprecipitation) (D2R/NR2B complex; CPP mice and BS mice, single intraperitoneal administration 3 nmol/g, 1 hour after treatment, TAT only as control): competitively disrupted the D2R/NR2B interaction; interaction between D2R and NR2B (D2R/NR2B complex; summary statement of the inventors' finding, no conditions given): successfully reduced the interaction between D2R and NR2B
KL region of D2R: GST fusion protein containing the KL region of D2R (K226-L240) (KRSSRAFRAHLRAPL; also: GST fusion; UniProt P14416 226-240, looked up, fragment)				could not be precipitated	
KT region of D2R: GST fusion protein containing the KT region of D2R (K211-T225) (KIYIVLRRRRKRVNT; also: GST fusion)				precipitated with affinity	
KVC region of D2R: GST fusion protein containing the KVC region of D2R (K211-V270) (KIYIVLRRRRKRVNTKRSSRAFRAHLRAPLKGNCTHPEDMKLCTVIMKSNGSFPVNRRRV; cysteine pairing not given here; also: GST fusion)				precipitated with affinity	
P4: Liu et al. polypeptide of IL3 from D2R (1210-K226) lacking the motif TKRSSRAFRA (IKIYIVLRRRRKRVNTK; UniProt P14416 210-226, looked up, fragment) [Pep P4]					prevention of the binding of D2R to NR2B (binding of D2R to NR2B): had no preventing effect
P5: Liu et al. polypeptide of IL3 from D2R containing motif T225-A234 (TKRSSRAFRA; UniProt P14416 225-234, looked up, fragment) [Pep P5]					prevention of the binding of D2R to NR2B (binding of D2R to NR2B): successfully prevented the binding of D2R to NR2B
YIVLRRRRKRVNT [Pep2, variant of KT polypeptide, N-terminal truncated; tested fused to TAT]	significantly reduced the activity distance	significantly inhibited the expression of sensitization behavior	significantly inhibited the expression of sensitization behavior		
B1				precipitated with affinity	
